According to patent US9758527B2, “Cyclohexene derivative, preparation method therefor, and pharmaceutical composition for preventing or treating metabolic diseases, containing same as active ingredient” (HYUNDAI PHARM CO., LTD., priority 2014, dated 2017):
pEC50: −log10 of the molar value. Counter-ions that a name gives are not always drawn. Like-named read-outs stand apart in the source and are kept apart here.

Legend:
blood glucose level = assay: Oral glucose tolerance test (OGTT) in high-fat diet model; type: in vivo; settings: hypoglycemic level, 20 mg/kg oral, glucose 2 g/kg oral after 30 minutes; for inhibition in vivo at 20 mg/kg: Mus musculus, 2 h, read-out: % AUC
Protocol: To evaluate in vivo effective effects of the cyclohexene derivatives according to the present invention, experiments were carried out, as follows.
Specifically, male C57BL/6J (C57 black 6) […] (8 to 10 weeks old) in a high-fat diet model were acclimated for at least 7 days, and only healthy rat populations were selected and subjected to an oral glucose tolerance test (OGTT). The rats were fasted for 12 to 15 hours, and then randomly divided into groups with five rats per group. Thereafter, each of the compounds of Examples 1, 14, 48, 69, 80, 118, 139, 147, 148, 169, 190, 199, 200, 204, 227, and Comparative Examples 1 and 2 according to the present invention was administered to the rats at a dose of 20 mg/kg. In this case, a vehicle (0.5%, carboxymethyl cellulose (CMC)) was administered as an untreated group, and the dose of the compound administered together with the vehicle was orally administered at 10 ml/kg. After 30 minutes of administration, glucose (2 g/kg) was orally administered at a dose of 10 ml/kg. A blood glucose level was measured using an Accu-Chek Active Strip (Rosche Diagnostic Co.). In this case, the glucose level in blood collected via caudal venipuncture was measured at time points of −30, 0, 20, 40, 60, and 120 minutes after glucose administration.
In Table 3, the unit “% AUC (area under the curve)” represents a hypoglycemic level.

[1] = biological target: T1, G protein-coupled receptor 119 (GPR-119) (Mesocricetus auratus, UniProt A0A1U8CD06); assay: Evaluation of cAMP activity in HIT-T15 cells (HTRF cAMP dynamic kit); type: cell-based, hamster; settings: cAMP activation
T1 construct: hamster-derived β-cells containing G protein-coupled receptor 119 (GPR-119), HIT-T15 cells; host or cells: HIT-T15 (hamster pancreatic β-cells)
T1 sequence (A0A1U8CD06 1-334): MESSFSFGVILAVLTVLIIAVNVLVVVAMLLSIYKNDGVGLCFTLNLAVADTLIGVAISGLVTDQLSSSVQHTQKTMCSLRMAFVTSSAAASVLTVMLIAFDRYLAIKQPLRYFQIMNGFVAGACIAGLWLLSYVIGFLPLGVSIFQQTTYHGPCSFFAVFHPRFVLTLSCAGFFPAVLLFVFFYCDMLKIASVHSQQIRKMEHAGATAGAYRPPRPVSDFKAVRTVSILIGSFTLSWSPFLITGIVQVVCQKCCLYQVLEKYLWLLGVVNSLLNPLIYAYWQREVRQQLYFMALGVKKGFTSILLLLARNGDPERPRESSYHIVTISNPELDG
How it was run: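 HIT-T15 cells, 60,000/well, treated next day with compound at six concentrations ([…]) for 1 h at 37° C. Lysate cAMP quantified by HTRF competitive immunoassay (D2-cAMP, cryptate anti-cAMP); activity taken as change in FRET signal relative to DMSO.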

[2] = Weight change in diet-induced obesity (DIO) rat model, 4-week administration; type: in vivo, male Sprague Dawley (SD) rats; settings: DIO rats, oral, 4 weeks
Protocol: To simultaneously evaluate both the weight-loss and hypoglycemic effects of the cyclohexene derivative according to the present invention, experiments were carried out, as follows.
Specifically, male Sprague Dawley (SD) rats (approximately 4 weeks old) in a diet-induced obesity model were fed with a high-fat diet (Lab. Diet Co.) for approximately 10 weeks to induce high-fat diet-induced obesity (DIO). The rats undergoing the high-fat diet were randomly selected, and divided into groups (n=8) for respective administrations. The compounds of Comparative Examples 3 and 4 and Examples 48 and 119 were administered to the divided DIO rats each group for 4 weeks.
The weights of the DIO rats were measured twice a week during a period of administration of 4 weeks to record a change in the weights. At the end of the 4-week period of administration, a hypoglycemic effect was evaluated using an oral glucose tolerance test (OGTT), as follows.
FIG. 1 is a graph determining the changes in weights of rats after compounds of Example 48 and Comparative Examples 3 and 4 according to the present invention are administered to a diet-induced obesity (DIO) rat model for 4 weeks (In FIG. 1, the term “untreated group (Vehicle)” represents an untreated group in a high-fat DIO rat model; and the term “Lean” represents an untreated group in a normal SD rat model rather than a disease model).

[3] = 1 h at 37° C., six concentrations, read-out: EC50

Structure (SMILES)	inhibition in vivo at 20 mg/kg (blood glucose level)	pEC50 [1, 3]	pEC50 ([1]; read-out: EC50 value)	other results
CC(C)c1noc(C2CCN(c3ncnc(Nc4ccc(S(C)(=O)=O)cc4F)c3[N+](=O)[O-])CC2)n1 [Comparative Example 1, N-(2-fluoro-4-methylsulfonylphenyl)-5-nitro-6-[4-(3-propan-2-yl-1,2,4-oxadiazol-5-yl)piperidin-1-yl]pyrimidine-4-amine, reference compound]	13.5%			
CCc1cnc(N2CCC(COc3ccc(C4=CCC(C(=O)N5CCC[C@@H]5CO)CC4)cc3)CC2)nc1 (stereo partly drawn) [Example 118, (4-(4-((1-(5-ethylpyrimidin-2-yl)piperidin-4-yl)methoxy)phenyl)cyclohex-3-enyl)((R)-2-(hydroxymethyl)pyrrolidin-1-yl)methanone]	23.5%	7.51	≥ 7.30	
CC(C)c1noc(N2CCC(COc3ccc(-c4ccc(S(C)(=O)=O)cc4)nc3)CC2)n1 [Comparative Example 2, 2-(4-methanesulfonylphenyl)-5-({1-[3-(propan-2-yl)-1,2,4-oxadiazol-5-yl]piperidin-4-yl}methoxy)pyridine, reference compound]	15.3%			EC50 ([1]; EC50 (nM), 1 h at 37° C., six concentrations): 49 nM
CC(C)c1noc(N2CCC(COc3ccc(C4=CCC(C(=O)NC(CO)CO)CC4)cc3F)CC2)n1 (stereo not drawn) [Example 80, N-(1,3-dihydroxypropan-2-yl)-4-(3-fluoro-4-((1-(3-isopropyl-1,2,4-oxadiazol-5-yl)piperidin-4-yl)methoxy)phenyl)cyclohex-3-enecarboxamide]	19.7%	7.05		
CCc1cnc(N2CCC(COc3ccc(C4=CCC(C(=O)N5CCC(C#N)CC5)CC4)cc3)CC2)nc1 (stereo not drawn) [Example 227, 1-(4-(4-((1-(5-ethylpyrimidin-2-yl)piperidin-4-yl)methoxy)phenyl)cyclohex-3-enecarbonyl)piperidine-4-carbonitrile]	26.8%	8.22	≥ 7.30	
CCN(CCO)C(=O)C1CC=C(c2ccc(OCC3CCN(C(=O)OC(C)(C)C)CC3)cc2)CC1 (stereo not drawn) [Example 199, tert-butyl 4-((4-(4-(ethyl(2-hydroxyethyl)carbamoyl)cyclohex-1-enyl)phenoxy)methyl)piperidine-1-carboxylate]	20.9%	8.10	≥ 7.30	
CC(C)(C)OC(=O)N1CCC(COc2ccc(C3=CCC(C(=O)NC(CO)CO)CC3)nc2)CC1 (stereo not drawn) [Example 14, tert-butyl 4-((6-(4-(1,3-dihydroxypropan-2-ylcarbamoyl)cyclohex-1-enyl)pyridin-3-yloxy)methyl)piperidine-1-carboxylate]	21.9%	6.19		
CC(C)(C)OC(=O)N1CCC(COc2ccc(C3=CCC(C(=O)NCCO)CC3)cc2)CC1 (stereo not drawn) [Example 190, tert-butyl 4-((4-(4-(2-hydroxyethylcarbamoyl)cyclohex-1-enyl)phenoxy)methyl)piperidine-1-carboxylate]				% AUC (blood glucose level): 20.9 % AUC
CC(C)c1noc(N2CCC(COc3ccc(C4=CCC(C(=O)N5CCC[C@H]5CO)CC4)cc3)CC2)n1 (stereo partly drawn) [Example 148, ((S)-2-(hydroxymethyl)pyrrolidin-1-yl)(4-(4-((1-(3-isopropyl-1,2,4-oxadiazol-5-yl)piperidin-4-yl)methoxy)phenyl)cyclohex-3-enyl)methanone]	22.6%	7.89	≥ 7.30	
CN(C)C(=N)NC(=N)N [Comparative Example 3, Metformin]				weight-loss effect ([2]; 300 mg/kg): the weight rather increased after 2 weeks of the oral administration
CC(C)c1noc(N2CCC(COc3ccc(C4=CCC(C(=O)NCC(=O)N5CCC[C@H]5C#N)CC4)cc3F)CC2)n1 (stereo partly drawn) [Example 139, N-(2-((S)-2-cyanopyrrolidin-1-yl)-2-oxoethyl)-4-(3-fluoro-4-((1-(3-isopropyl-1,2,4-oxadiazol-5-yl)piperidin-4-yl)methoxy)phenyl)cyclohex-3-enecarboxamide]	25.4%	6.89		
CCc1cnc(N2CCC(COc3ccc(C4=CCC(C(=O)N5CCC(=NO)CC5)CC4)cc3)CC2)nc1 (stereo not drawn) [Example 277, (4-(4-((1-(5-ethylpyrimidin-2-yl)piperidin-4-yl)methoxy)phenyl)cyclohex-3-enyl)(4-(hydroxyimino)piperidin-1-yl)methanone]		7.70		% AUC (blood glucose level): 19.8 % AUC
CC(C)CC(N(C)C)C1(c2ccc(Cl)cc2)CCC1 (stereo not drawn) [Comparative Example 4, Sibutramine]				weight-loss effect ([2]; 5 mg/kg): the weight rather increased after 2 weeks of the oral administration
CC(C)(C)OC(=O)N1CCC(COc2ccc(C3=CCC(C(=O)N4CCCCC4)CC3)cc2)CC1 (stereo not drawn) [Example 204, tert-butyl 4-((4-(4-(piperidine-1-carbonyl)cyclohex-1-enyl)phenoxy)methyl)piperidine-1-carboxylate]	24%	8.05	≥ 7.30	
C[C@H](CO)NC(=O)C1CC=C(c2ccc(OCC3CCN(C(=O)OC(C)(C)C)CC3)cc2)CC1 (stereo partly drawn) [Example 1, tert-butyl 4-((4-(4-((R)-1-hydroxypropan-2-ylcarbamoyl)cyclohex-1-enyl)phenoxy)methyl)piperidine-1-carboxylate]	28.5%	7.19		
CC(C)c1noc(N2CCC(COc3ccc(C4=CCC(C(=O)N5CCC[C@@H]5CO)CC4)cc3)CC2)n1 (stereo partly drawn) [Example 147, ((R)-2-(hydroxymethyl)pyrrolidin-1-yl)(4-(4-((1-(3-isopropyl-1,2,4-oxadiazol-5-yl)piperidin-4-yl)methoxy)phenyl)cyclohex-3-enyl)methanone]	23.3%	8.16	≥ 7.30	
CC(C)(C)OC(=O)N1CCC(COc2ccc(C3=CCC(C(=O)N4CCOCC4)CC3)cc2F)CC1 (stereo not drawn) [Example 69, tert-butyl 4-((2-fluoro-4-(4-(morpholine-4-carbonyl)cyclohex-1-enyl)phenoxy)methyl)piperidine-1-carboxylate]	19.1%	8.15	≥ 7.30	
CC(C)(C)OC(=O)N1CCC(COc2ccc(C3=CCC(C(=O)N4CCC(CCO)CC4)CC3)cc2)CC1 (stereo not drawn) [Example 200, tert-butyl 4-((4-(4-(4-(2-hydroxyethyl)piperidine-1-carbonyl)cyclohex-1-enyl)phenoxy)methyl)piperidine-1-carboxylate]	24%	7.64	≥ 7.30	
CCc1cnc(N2CCC(COc3ccc(C4=CCC(C(=O)N5CCC(CO)CC5)CC4)cc3)CC2)nc1 (stereo not drawn) [Example 169, (4-(4-((1-(5-ethylpyrimidin-2-yl)piperidin-4-yl)methoxy)phenyl)cyclohex-3-enyl)(4-(hydroxymethyl)piperidin-1-yl)methanone hydrochloride]	21.7%	8.05		
